According to patent US4351763A, “Pharmacologically active peptides” (Eli Lilly and Company, priority 1981, dated 1982):
Where a SMILES comes first, the peptide text is derived from it. [ ]: non-standard residue; d: D form. Phe(4-F) = N[C@@H](Cc1ccc(F)cc1)C(=O)O; NMeM = CN[C@@H](CCSC)C(=O)O

Test system: mouse
Experiment: mouse hot plate test (analgesic activity)
Format: in vivo
Conditions: hot plate 52° C., 15 minutes after administration, latency until jump
Method: In this test, a mouse is placed inside an upright acrylic cylinder comprising, as its base, a hot plate surface which is maintained at 52° C. The mouse is given, orally or by subcutaneous injection, a predetermined amount of test compound dissolved or suspended in a suitable carrier, and, 15 minutes after administration of the test compound, the mouse is placed on the hot plate surface. The latency in seconds until the mouse jumps from the hot plate surface is measured. […] This must occur in a dose range which produces no motor incoordination or incapacitation. The following Table records the ED50 results obtained from this test.

SMILES	Analgesic Activity, Hot Plate Test ED50, mg./kg., subcutaneous
CSCC[C@@H](C(N)=O)N(C)C(=O)[C@H](Cc1ccc(F)cc1)NC(=O)CNC(=O)[C@@H](C)NC(=O)[C@@H](N)Cc1ccc(O)cc1 [Example 1, L-Tyrosyl-D-alanylglycyl-L-p-fluorophenylalanyl-L-(N^α -methyl)methioninamide]	0.023 mg/kg
C[C@@H](NC(=O)[C@@H](N)Cc1ccc(O)cc1)C(=O)NCC(=O)N[C@@H](Cc1ccc(F)cc1)C(=O)N[C@@H](C(N)=O)c1ccccc1 [Example 3 D-Pgl, L-Tyrosyl-D-alanyl-glycyl-L-p-fluorophenylalanyl-D-phenylglycinamide]	0.103 mg/kg
C[C@@H](NC(=O)[C@@H](N)Cc1ccc(O)cc1)C(=O)NCC(=O)N[C@@H](Cc1ccc(F)cc1)C(=O)N[C@H](C(N)=O)c1ccccc1 [Example 3 L-Pgl, L-Tyrosyl-D-alanyl-glycyl-L-p-fluorophenylalanyl-L-phenylglycinamide]	0.063 mg/kg
CSCC[C@@H](C(N)=O)N(C)C(=O)[C@H](Cc1ccc(F)cc1)NC(=O)CNC(=O)[C@H](NC(=O)[C@@H](N)Cc1ccc(O)cc1)[C@H](C)O [Example 4, L-Tyrosyl-D-threonylglycyl-L-p-fluorophenylalanyl-L-(N^α -methyl)methioninamide] (H-Y[dT]G[Phe(4-F)][NMeM]-NH2)	0.088 mg/kg
COc1ccc([C@H](NC(=O)[C@H](Cc2ccc(F)cc2)NC(=O)CNC(=O)[C@@H](C)NC(=O)[C@@H](N)Cc2ccc(O)cc2)C(N)=O)cc1 [Example 2, L-Tyrosyl-D-alanylglycyl-L-p-fluorophenylalanyl-L-p-methoxyphenylglycinamide]	1.04 mg/kg
